# Measurements published in patent US20210040118A1, “IMMUNOMODULATORS, COMPOSITIONS AND METHODS THEREOF” (BETTA PHARMACEUTICALS CO., LTD, priority 2018, published 2021).
# Target: T1, PD-1/PD-L1 (Homo sapiens, UniProt Q9NZQ7)
# T1 construct: Recombinant human PD-L1 protein (19-238) with a His-tag at the C-terminus; purchased AcroBiosystems PD1-H5229 (PD-L1); PD1-H5257 (PD-1)
# Assay: PD-1/PD-L1 homogenous time-resolved fluorescence (HTRF) binding assay
# Settings: recombinant human PD-L1 (19-238) His-tag / human PD-1 (25-167) Fc tag, class symbols
# In short: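 Inhibitors were preincubated 40 min at 25°C with 10 nM His-tagged human PD-L1 (19-238) and 3 nM Fc-tagged human PD-1 (25-167) in PBS pH 7.4 containing Tween-20, BSA and 1% DMSO. After 60 min with europium anti-human IgG and anti-His-APC, 665/620 nm signal ratio gave IC50 via percent-control fit.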
# T1 sequence (Q9NZQ7 19-238): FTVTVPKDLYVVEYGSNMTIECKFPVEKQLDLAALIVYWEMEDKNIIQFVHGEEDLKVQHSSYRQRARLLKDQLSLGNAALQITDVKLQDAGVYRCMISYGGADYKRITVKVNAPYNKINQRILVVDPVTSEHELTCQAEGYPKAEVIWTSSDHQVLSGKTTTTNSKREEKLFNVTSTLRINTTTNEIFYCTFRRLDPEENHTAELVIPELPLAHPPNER
row,Structure (SMILES),IC50 [nM]
1,"O=C(c1nc2c(s1)CN(CCF)CC2)N1CCc2c(-c3cccc4c3CCN4C(=O)c3nc4c(s3)CN(CCF)CC4)cccc21 [Example 87, [4,4′-biindoline]-1,1′-diylbis((5-(2-fluoroethyl)-4,5,6,7-tetrahydrothiazolo[5,4-c]pyridin-2-yl)methanone)]",< 25
2,"NC(=O)CN1CCc2nc(C(=O)Nc3cccc(-c4cccc(NC(=O)c5nc6c(s5)CN(CC(N)=O)CC6)c4Cl)c3Cl)sc2C1 [Example 90, N,N′-(2,2′-dichloro-[1,1′-biphenyl]-3,3′-diyl)bis(5-(2-amino-2-oxoethyl)-4,5,6,7-tetrahydrothiazolo[5,4-c]pyridine-2-carboxamide)]",< 25
3,"O=C(Nc1cccc(-c2cccc(NC(=O)c3nc4c(s3)CN(C3COC3)CC4)c2Cl)c1Cl)c1nc2c(s1)CN(C1COC1)CC2 [Example 92, N,N′-(2,2′-dichloro-[1,1′-biphenyl]-3,3′-diyl)bis(5-(oxetan-3-yl)-4,5,6,7-tetrahydrothiazolo[5,4-c]pyridine-2-carboxamide)]",< 25
4,"Cc1c(NC(=O)c2nc3c(s2)CNCC3)cc(Cl)cc1-c1cc(Cl)cc(NC(=O)c2nc3c(s2)CNCC3)c1C [Example 93, N,N′-(5,5′-dichloro-2,2′-dimethyl-[1,1′-biphenyl]-3,3′-diyl)bis(4,5,6,7-tetrahydrothiazolo[5,4-c]pyridine-2-carboxamide)]",< 25
5,"Cc1ccc(-c2ccc(C)c(NC(=O)c3nc4c(s3)CNCC4)c2C)c(C)c1NC(=O)c1nc2c(s1)CNCC2 [Example 94, N,N′-(2,2′,4,4′-tetramethyl-[1,1′-biphenyl]-3,3′-diyl)bis(4,5,6,7-tetrahydrothiazolo[5,4-c]pyridine-2-carboxamide)]",< 25
6,"Cc1c(NC(=O)c2nc3c(s2)CNCC3)cc(F)cc1-c1cc(F)cc(NC(=O)c2nc3c(s2)CNCC3)c1C [Example 96, N,N′-(5,5′-difluoro-2,2′-dimethyl-[1,1′-biphenyl]-3,3′-diyl)bis(4,5,6,7-tetrahydrothiazolo[5,4-c]pyridine-2-carboxamide)]",< 25
7,"O=C(c1ncc(CNCCO)s1)N1CCc2c(-c3cccc4c3CCN4C(=O)c3nc4c(s3)CNCC4)cccc21 [Example 99, (5-(((2-hydroxyethyl)amino)methyl)thiazol-2-yl)(1′-(4,5,6,7-tetrahydrothiazolo[5,4-c]pyridine-2-carbonyl)-[4,4′-biindolin]-1-yl)methanone]",< 25
8,"CN(C)C(=O)CN1CCc2nc(C(=O)N3CCc4c(-c5cccc6c5CCN6C(=O)c5nc6c(s5)CN(CC(=O)N(C)C)CC6)cccc43)sc2C1 [Example 106, 2,2′-(([4,4′-biindoline]-1,1′-dicarbonyl)bis(6,7-dihydrothiazolo[5,4-c]pyridine-2,5(4H)-diyl))bis(N,N-dimethylacetamide)]",< 25
9,"NC(=O)CN1CCc2nc(C(=O)N3CCc4c(-c5cccc6c5CCN6C(=O)c5nc6c(s5)CN(CC(=O)O)CC6)cccc43)sc2C1 [Example 107, 2-(2-(1′-(5-(2-amino-2-oxoethyl)-4,5,6,7-tetrahydrothiazolo[5,4-c]pyridine-2-carbonyl)-[4,4′-biindoline]-1-carbonyl)-6,7-dihydrothiazolo[5,4-c]pyridin-5(4H)-yl)acetic acid]",< 25
10,"O=C(O)CN1C2CCC1c1sc(C(=O)N3CCc4c(-c5cccc6c5CCN6C(=O)c5nc6c(s5)C5CCC(C6)N5CC(=O)O)cccc43)nc1C2 [Example 110, 2,2′-(([4,4′-biindoline]-1,1′-dicarbonyl)bis(5,6,7,8-tetrahydro-4H-5,8-epiminocyclohepta[d]thiazole-2,9-diyl))diacetic acid]",< 25
11,"NC(=O)CN1C2CCC1c1sc(C(=O)N3CCc4c(-c5cccc6c5CCN6C(=O)c5nc6c(s5)C5CCC(C6)N5CC(=O)O)cccc43)nc1C2 (centres unmarked) [Example 111, 2-(2-(1′-(9-(2-amino-2-oxoethyl)-5,6,7,8-tetrahydro-4H-5,8-epiminocyclohepta[d]thiazole-2-carbonyl)-[4,4′-biindoline]-1-carbonyl)-5,6,7,8-tetrahydro-4H-5,8-epiminocyclohepta[d]thiazol-9-yl)acetic acid]",< 25
12,"CN(C)Cc1cnc(C(=O)N2CCc3c(-c4cccc5c4CCN5C(=O)c4ncc(CN(C)C)s4)cccc32)s1 [Example 112, [4,4′-biindoline]-1,1′-diylbis((5-((dimethylamino)methyl)thiazol-2-yl)methanone)]",< 25

# The remaining lines, values ahead:
row,IC50 [nM],Structure (SMILES)
1,< 25,"O=C(c1nc2c(s1)CN(C1COC1)CC2)N1CCc2c(-c3cccc4c3CCN4C(=O)c3nc4c(s3)CN(C3COC3)CC4)cccc21 [Example 88, [4,4′-biindoline]-1,1′-diylbis((5-(oxetan-3-yl)-4,5,6,7-tetrahydrothiazolo[5,4-c]pyridin-2-yl)methanone)]"
2,< 25,"O=C(Nc1cccc(-c2cccc(NC(=O)c3nc4c(s3)CNCC4)c2Cl)c1Cl)c1nc2c(s1)CNCC2 [Example 89, N,N′-(2,2′-dichloro-[1,1′-biphenyl]-3,3′-diyl)bis(4,5,6,7-tetrahydrothiazolo[5,4-c]pyridine-2-carboxamide)]"
3,< 25,"O=C(Nc1cccc(-c2cccc(NC(=O)c3nc4c(s3)CN(CCO)CC4)c2Cl)c1Cl)c1nc2c(s1)CN(CCO)CC2 [Example 91, N,N′-(2,2′-dichloro-[1,1′-biphenyl]-3,3′-diyl)bis(5-(2-hydroxyethyl)-4,5,6,7-tetrahydrothiazolo[5,4-c]pyridine-2-carboxamide)]"
4,< 25,"Cc1c(NC(=O)c2nc3c(s2)CNCC3)cc(F)cc1-c1cccc2c1CCN2C(=O)c1nc2c(s1)CNCC2 [Example 95, N-(5-fluoro-2-methyl-3-(1-(4,5,6,7-tetrahydrothiazolo[5,4-c]pyridine-2-carbonyl)indolin-4-yl)phenyl)-4,5,6,7-tetrahydrothiazolo[5,4-c]pyridine-2-carboxamide]"
5,< 25,"O=C(Nc1cccc(-c2cccc(NC(=O)c3nc4c(s3)CNCC4)c2Cl)c1Cl)c1ncc(CNCCO)s1 [Example 97, N-(2,2′-dichloro-3′-(5-(((2-hydroxyethyl)amino)methyl)thiazole-2-carboxamido)-[1,1′-biphenyl]-3-yl)-4,5,6,7-tetrahydrothiazolo[5,4-c]pyridine-2-carboxamide]"
6,< 25,"O=C(Nc1cccc(-c2cccc(Nc3nccc4cc(CNCCO)cnc34)c2Cl)c1Cl)c1ncc(CNCCO)s1 [Example 98, N-(2,2′-dichloro-3′-((3-(((2-hydroxyethyl)amino)methyl)-1,7-naphthyridin-8-yl)amino)-[1,1′-biphenyl]-3-yl)-5-(((2-hydroxyethyl)amino)methyl)thiazole-2-carboxamide]"
7,< 25,"O=C(c1nc2c(s1)CNCC2)N1CCc2c(-c3cccc4c3CCN4c3nccc4cc(CNCCO)cnc34)cccc21 [Example 100, (1′-(3-(((2-hydroxyethyl)amino)methyl)-1,7-naphthyridin-8-yl)-[4,4′-biindolin]-1-yl)(4,5,6,7-tetrahydrothiazolo[5,4-c]pyridin-2-yl)methanone]"
8,< 25,"O=C(Nc1cccc(-c2cccc3c2CCN3C(=O)c2nc3c(s2)CNCC3)c1Cl)c1ncc(CNCCO)s1 [Example 101, N-(2-chloro-3-(1-(4,5,6,7-tetrahydrothiazolo[5,4-c]pyridine-2-carbonyl)indolin-4-yl)phenyl)-5-(((2-hydroxyethyl)amino)methyl)thiazole-2-carboxamide]"
9,< 25,"COC(=O)CN1CCc2nc(C(=O)N3CCc4c(-c5cccc6c5CCN6C(=O)c5nc6c(s5)CN(CC(=O)OC)CC6)cccc43)sc2C1 [Example 102, dimethyl 2,2′-(([4,4′-biindoline]-1,1′-dicarbonyl)bis(6,7-dihydrothiazolo[5,4-c]pyridine-2,5(4H)-diyl))diacetate]"
10,< 25,"NC(=O)CN1CCc2nc(C(=O)N3CCc4c(-c5cccc6c5CCN6C(=O)c5nc6c(s5)CN(CC(N)=O)CC6)cccc43)sc2C1 [Example 104, 2,2′-(([4,4′-biindoline]-1,1′-dicarbonyl)bis(6,7-dihydrothiazolo[5,4-c]pyridine-2,5(4H)-diyl))diacetamide]"
11,< 25,"CNC(=O)CN1CCc2nc(C(=O)N3CCc4c(-c5cccc6c5CCN6C(=O)c5nc6c(s5)CN(CC(=O)NC)CC6)cccc43)sc2C1 [Example 105, 2,2′-(([4,4′-biindoline]-1,1′-dicarbonyl)bis(6,7-dihydrothiazolo[5,4-c]pyridine-2,5(4H)-diyl))bis(N-methylacetamide)]"
12,< 25,"CNC(=O)CN1CCc2nc(C(=O)N3CCc4c(-c5cccc6c5CCN6C(=O)c5nc6c(s5)CN(CC(=O)O)CC6)cccc43)sc2C1 [Example 108, 2-(2-(1′-(5-(2-(methylamino)-2-oxoethyl)-4,5,6,7-tetrahydrothiazolo[5,4-c]pyridine-2-carbonyl)-[4,4′-biindoline]-1-carbonyl)-6,7-dihydrothiazolo[5,4-c]pyridin-5(4H)-yl)acetic acid]"
13,< 25,"CN(C)C(=O)CN1CCc2nc(C(=O)N3CCc4c(-c5cccc6c5CCN6C(=O)c5nc6c(s5)CN(CC(=O)O)CC6)cccc43)sc2C1 [Example 109, 2-(2-(1′-(5-(2-(dimethylamino)-2-oxoethyl)-4,5,6,7-tetrahydrothiazolo[5,4-c]pyridine-2-carbonyl)-[4,4′-biindoline]-1-carbonyl)-6,7-dihydrothiazolo[5,4-c]pyridin-5(4H)-yl)acetic acid]"

# Same assay, conditions: recombinant human PD-L1 (19-238) His-tag / human PD-1 (25-167) Fc tag, numeric values
row,IC50 [nM],Structure (SMILES)
1,0.37,"O=C(O)CN1CCc2nc(C(=O)N3CCc4c(-c5cccc6c5CCN6C(=O)c5nc6c(s5)CN(CC(=O)O)CC6)cccc43)sc2C1 [Example 103, 2,2′-(([4,4′-biindoline]-1,1′-dicarbonyl)bis(6,7-dihydrothiazolo[5,4-c]pyridine-2,5(4H)-diyl))diacetic acid]"
